Test [1] relates to Erk kinases (MAP kinase). Put plainly: Erk (MAP kinase) activation by immunoblot of PC12 cell lysates. The following applies: serum-starved PC12 cells, 100 nM 17β-estradiol, indicated time intervals. The test is classed as cell-based. The protocol:
(§1) As in FIG. 2, serum-starved PC12 cells were treated with 100 nM 17β-estraldiol for the indicated time intervals. Cells were-rinsed and lysed in RIPA buffer. Proteins were separated on SDS-PAGE, blotted onto PVDF membrane. The blot was probed for activated Erks (i.e activated MAP kinase) using rabbit IgGs against activated Erk kinases (UBI). The reagents used in these studies were those specified in the original references to methods employed, unless otherwise specified. We used established cell culture methods for growing cells and for examining their morphological responses (Zhou et al. (1994) Proc. Natl. Acad. Sci USA 91(9):3824-3828). To examine gene expression for GPR30 and the classical ERs, standard methods were used to isolate mRNA and to analyze it by Northern blot and by RT-PCR (GIBCO-BRL, Bethesda, Md.). The activity of Rap1 and of Ras were assayed using pull-down assays with fusion proteins that bind specifically to the GTP-bound forms of these proteins, as described (Herrmann et al. (1995) J. Biol. Chem. 270:2901-2905). These fusion proteins were produced essentially as described by these authors. The activity of MAP kinase was determined by immunoblotting cell lysates with antibodies to phosphorylated MAP kinase (Payne et al. (1991) EMBO J. 10(4):885-892). The source of these antibodies was from New England Biolabs, Inc. (Beverley, Mass.).

The subject of test [2] is Rap1. The test can be described thus: Rap1 activation pull-down assay in PC12 cells. The test is classed as cell-based. The following applies: for Effect on Rap1 activation induced by 17β-estradiol: 100 nM 17β-estradiol plus 1 μM tamoxifen. The protocol:
FIGS. 2A, 2B, 2C, 2D: 17β-estradiol elicits Rap1, but not Ras, activation in PC12 cells. Serum-starved PC12 cells were treated with 100 nM 17β-estradiol for the indicated time intervals. Activated Ras (A) and Rap1 (B) were precipitated from cell lysates and analyzed as described in the Materials and Methods. […] Tomaxifen itself has no effect on Rap1 activation in PC12 cells D.
Drug Screening Assays: These are used to identify GPR30 ligands that bind to and activate the GPR30 receptor. Drug screening identifies agents that enhance GPR30 activity. Of particular interest are screening assays for agents that have a low toxicity for human cells. In vitro or in vivo binding assays can be used to assess the extent to which a compound behaves as a specific ligand. Other assays are available to test for the activation of signaling pathways by ligand binding. One assay based on the finding that GPR30 activation results in the activation of the small GTPase Rap1, and of the other enzymes in the MAP kinase signaling pathway that is activated by Rap1. The assay for evaluating the activation of Rap1 examines the extent to which Rap1 is bound to GTP and employs a method as described by Herrmann et al. (1995) J. Biol. Chem 270:2901-2905. A wide variety of assays are available to assess the activation status of the enzymes downstream from Rap1. These include in vitro kinase assays for B-Raf, MEK, MAP kinase and Rsk (Cowley et al. (1994) Cell 77:841-852; Vossler et al. (1997) Cell 89:73-82). The activation of these proteins and some of their downstream targets (e.g. Elk-1 and CREB) may also be assessed through the use of antibodies to phosphorylated tyrosine or serine or threonine residues, which marks their active state (Payne et al. (1991) EMBO J. 10(4):885-892).
as §1, with “The” for “As in FIG. 2, serum-starved PC12 cells were treated with 100 nM 17β-estraldiol for the indicated time intervals. Cells were-rinsed and lysed in RIPA buffer. Proteins were separated on SDS-PAGE, blotted onto PVDF membrane. The blot was probed for activated Erks (i.e activated MAP kinase) using rabbit IgGs against activated Erk kinases (UBI). The”

Test [3] relates to Ras. Put plainly: Ras activation pull-down assay in PC12 cells. The test is classed as cell-based. The following applies: serum-starved PC12 cells, 100 nM 17β-estradiol, indicated time intervals.
Protocol: Serum-starved PC12 cells were treated with 100 nM 17β-estradiol for the indicated time intervals. Activated Ras (A) and Rap1 (B) were precipitated from cell lysates and analyzed as described in the Materials and Methods. […] The activity of Rap1 and of Ras were assayed using pull-down assays with fusion proteins that bind specifically to the GTP-bound forms of these proteins, as described (Herrmann et al. (1995) J. Biol. Chem. 270:2901-2905). These fusion proteins were produced essentially as described by these authors.
The subject of test [4] is PC12 cells. Put plainly: PC12 cell differentiation and survival in serum-free media. The test is classed as cell-based. Particulars: serum-free media with 100 nM 17β-estradiol, 6 days. The protocol: PC12 cells were maintained in either serum-free media (A) or serum-free media supplemented with 100 nM 17β-estradiol (B) for 6 days. Cells were monitored with phase-contrast microscope and typical images were captured using a CCD camera. Differentiated PC12 cells (arrows) can be observed with 17β-estradiol treatment (B), whereas massive cell death occurred in the control (A). The reagents used in these studies were those specified in the original references to methods employed, unless otherwise specified. We used established cell culture methods for growing cells and for examining their morphological responses (Zhou et al. (1994) Proc. Natl. Acad. Sci USA 91(9):3824-3828). To examine gene expression for GPR30 and the classical ERs, standard methods were used to isolate mRNA and to analyze it by Northern blot and by RT-PCR (GIBCO-BRL, Bethesda, Md.). The activity of Rap1 and of Ras were assayed using pull-down assays with fusion proteins that bind specifically to the GTP-bound forms of these proteins, as described (Herrmann et al. (1995) J. Biol. Chem. 270:2901-2905). These fusion proteins were produced essentially as described by these authors. The activity of MAP kinase was determined by immunoblotting cell lysates with antibodies to phosphorylated MAP kinase (Payne et al. (1991) EMBO J. 10(4):885-892). […]

For test [5], the system named is 145 kDa intermediate neurofilament. Put plainly: 145 kDa intermediate neurofilament expression in PC12 cells (immunoblot). The test is classed as cell-based. Particulars: serum-free media, 3 days. The text has this:
FIG. 5: Induction of the 145 kDa intermediate neurofilament expression by 17β-estradioi in PC12 cells. PC12 cells were maintained in either serum-free media supplemented with either NGF or 17β-estradiol at the indicated concentrations for 3 days. Treated as well as control cells were lysed in RIPA buffer and the lysates were separated on SDS-PAGE, transferred onto PVDF membrane. The blot was probed with specific antibodies against the 145 kDa intermediate neurofilament.

The subject of test [6] is mitogen-activated protein (MAP) kinases. Particulars: literature, Singh et al. (1999); cited from earlier work.

Entries after “also recorded” stand apart in the source; their conditions may differ.

Turning to `C[C@]12CC[C@@H]3c4ccc(O)cc4CC[C@H]3[C@@H]1CC[C@@H]2O` [17β-estradiol], in test [1], the “Erk / MAP kinase activation (pERK)” value is on record as “induces prolonged Erk activation; also recorded: induced sustained activation”. Further, the “Activation of Rap1 during the first 10 minutes of treatment” value in test [2] (PC12 cells, first 10 minutes) was “little effect”. Further, the “Activation of Rap1 at later times” value in test [2] (PC12 cells, later than 10 minutes) is listed as “marked effect”. The Rap1 activation result in test [2] (serum-starved PC12 cells, 100 nM 17β-estradiol, indicated time intervals) is “induces Rap1 activation; also recorded: activated Rap1”. Also, the Ras activation entry in test [3] is “no detectable Ras activation and not”. Also, in test [4], the “PC12 cell differentiation (neurite outgrowth)” value was “induces PC12 cell differentiation; also recorded: induced the outgrowth of long neurites” and the “PC12 cell survival under serum free culture” value is listed as “prevented these cells from dying”. Further, the “Expression of the 145 kDa intermediate neurofilament protein” value in test [5] was “Induction; also recorded: increasing the level of expression”.
As for 17β-estradiol, the “Tyrosine phosphorylation/activation of MAP kinases” value in test [6] is “elicited rapid tyrosine phosphorylation/activation”.
With `C[C@]12CC[C@@H]3c4ccc(O)cc4C[C@@H](CCCCCCCCC[S+]([O-])CCCC(F)(F)C(F)(F)F)[C@H]3[C@@H]1CC[C@@H]2O` (some centres unmarked) [ICI 182,780], in test [6], the “Inhibition of estradiol-elicited extracellular signal-regulated protein kinase activation” value is given as “not”.
In the case of `COc1cccc(-c2cc(=O)c3ccccc3o2)c1N` [PD98059], the “Inhibition of estradiol-elicited extracellular signal-regulated protein kinase activation” value in test [6] is recorded as “inhibited successfully”.
For the compound `CC/C(=C(\c1ccccc1)c1ccc(OCCN(C)C)cc1)c1ccccc1` [tamoxifen], the “Effect on Rap1 activation induced by 17β-estradiol” value in test [2] (PC12 cells) is “blocked the response”; in test [2] (PC12 cells, listed as tomaxifen) it was “can be blocked”. For the same compound, in test [2] (PC12 cells, tamoxifen alone), the “Rap1 activation by the substance alone” value is reported as “no effect”.

These data come from US6444420B2, “Use of GPR30 receptor ligands to mediate neurotrophic action” (The Board of Trustees of the Leland Stanford Junior …, priority 1999, dated 2002).
